Measured values from patent US11161839B2, “2-quinolone derived inhibitors of BCL6” (Cancer Research Technology Limited, priority 2017, dated 2021).

Molecular target: BCL6 (Homo sapiens (Human), UniProt P41182)
Assay: assays described in the Examples section (not specified which)
Details: tested compounds outside desired/preferred activity
Protocol: DC50 values (compound concentration at which 50% of endogenous BCL6 protein is degraded) were determined in SUDHL-4 cells (American Type Culture Collection) in an immunofluorescence-based assay using an InCell2200 high content imaging system (GE Healthcare). Briefly, 40 μL of lymphoma suspension cells cultured in RPMI 1640-10% FBS (Sigma-Aldrich or PAN Biotech UK Ltd) were platted on fibronectin (Sigma catalogue F1141)-coated 384 well Cell Carrier Ultra plate (Perkin Elmer catalogue 6057300) at 1.2 104 cells/well. After 20 hours cell culture at 37° C./C02 incubator, compounds were dispensed in the cell culture plate using ECHO550 acoustic dispenser (Labcyte, Inc.), as 8 point-concentration response (ranging from 5 nM to 10 μM) in 0.67% final DMSO concentration. Cells were incubated with compound for 2 hours at 37° C./C02 incubator followed by fixation in 4.5% formaldehyde (37% formaldehyde solution, Sigma catalogue F8775) at room temperature for 15 min. After fixing, cells were washed in 1×TBS (Tris Buffer Saline) using a Power Washer 384 (Tecan Group Ltd). Blocking and cell permeabilisation were performed by incubating the fixed cells for 1 hour at room temperature in 1×TBS, 5% BSA, 1% Triton X100, followed by three washes on PW384 plate washer. Primary and secondary antibodies were prepared in 1×TBS, 1% BSA, 0.2% Triton X100. BCL6 expression was detected by incubating the cells for 1 h30 with BCL6 rabbit polyclonal antibody (Sigma Catalogue HPA004899) at 1:250, 0.8 μg/ml, followed by 1 hour in chicken anti-Rabbit Alexa 488 conjugated antibody (Life Technology) at 1:500. After incubation in each antibody, cells were washes four times in 1×TBS-0.05% tween on PW384 plate washer. Cells were finally incubated for 60 min with nuclear staining RedDot2 dye (Biotium) at 0.5× the stock concentration in 1×TBS. BCL6 expression in the absence or presence of compound was detected on InCell2200 with 20× objective and quantified on InCell Analyser 3.7.2 workstation (GE Healthcare). The % response at each concentration was calculated by normalising BCL6 expression in the presence of compound to the appropriate high (DMSO) and low (DMSO with 7 μM CCT369260) controls.
The volume of medium containing 2000 cells in the control well was calculated and this volume of cells was transferred from every well of the assay plates to the corresponding well of the fresh plates containing compound. After 14 days, CellTiter Glo reagent (Promega) was added to the medium in each well of the assay plate at a ratio of 1:2, mixed on a plate shaker, then incubated at room temperature for 10 minutes. Luminescence was measured using an Envision plate reader (Perkin Elmer) and the relative luminescence at each compound concentration, compared to DMSO alone, was calculated. IC50 were determined using a 4-parameter curve fit in Dotmatics (Bishops Stortford, UK).

activity in the assays described in the Examples section	SMILES
did not exhibit the desired activity	CNC(=O)CNc1cc(=O)[nH]c2ccc(Nc3ccnc(Cl)c3C#N)cc12 [2-((6-((2-chloro-3-cyanopyridin-4-yl)amino)-2-oxo-1,2-dihydroquinolin-4-yl)amino)-N-methylacetamide]
did not exhibit the desired activity	CC(CN(C)C)Nc1cc(=O)n(C)c2ccc(Nc3ccnc(Cl)c3C#N)cc12 (stereo not drawn) [2-chloro-4-((4-((1-(dimethylamino)propan-2-yl)amino)-1-methyl-2-oxo-1,2-dihydroquinolin-6-yl)amino)nicotinonitrile]
not to exhibit the preferred activity	CC(Nc1cc(=O)n(C)c2ccc(Nc3nc(N4C[C@H](C)C[C@H](C)C4)nc(C(F)(F)F)c3Cl)cc12)c1ncccn1 (stereo partly drawn) [6-((5-chloro-2-((3S,5R)-3,5-dimethylpiperidin-1-yl)-6-(trifluoromethyl)pyrimidin-4-yl)amino)-1-methyl-4-((1-(pyrimidin-2-yl)ethyl)amino)quinolin-2(1H)-one]
did not exhibit the desired activity	Cn1c(=O)cc(NC2CCCNC2=O)c2cc(Nc3ccnc(Cl)c3C#N)ccc21 (stereo not drawn) [2-chloro-4-((1-methyl-2-oxo-4-((2-oxopiperidin-3-yl)amino)-1,2-dihydroquinolin-6-yl)amino)nicotinonitrile]
not to exhibit the preferred activity	CN1CCC(Nc2cc(=O)n(C)c3ccc(Nc4ccnc(Cl)c4C#N)cc23)C1=O (stereo not drawn) [2-chloro-4-((1-methyl-4-((1-methyl-2-oxopyrrolidin-3-yl)amino)-2-oxo-1,2-dihydroquinolin-6-yl)amino)nicotinonitrile]
not to exhibit the preferred activity	Cn1c(=O)cc(NCc2ncccn2)c2cc(Nc3ccnc(Cl)c3C#N)ccc21 [2-chloro-4-[[1-methyl-2-oxo-4-(pyrimidin-2-ylmethylamino)-6-quinolyl]amino]pyridine-3-carbonitrile]
